Experimental findings from ChEMBL document CHEMBL1142800, “Estrogen receptor ligands. Part 13: Dihydrobenzoxathiin SERAMs with an optimized antagonist side chain” (Bioorg Med Chem Lett, 2005) are described below.

For this assay, the target named is Estrogen receptor beta (Homo sapiens, UniProt Q92731). Description: Inhibition of human estrogen receptor 2 using tritiated estradiol incubated for 3 hr.
Estrogen receptor beta, sequence (Q92731 whole entry): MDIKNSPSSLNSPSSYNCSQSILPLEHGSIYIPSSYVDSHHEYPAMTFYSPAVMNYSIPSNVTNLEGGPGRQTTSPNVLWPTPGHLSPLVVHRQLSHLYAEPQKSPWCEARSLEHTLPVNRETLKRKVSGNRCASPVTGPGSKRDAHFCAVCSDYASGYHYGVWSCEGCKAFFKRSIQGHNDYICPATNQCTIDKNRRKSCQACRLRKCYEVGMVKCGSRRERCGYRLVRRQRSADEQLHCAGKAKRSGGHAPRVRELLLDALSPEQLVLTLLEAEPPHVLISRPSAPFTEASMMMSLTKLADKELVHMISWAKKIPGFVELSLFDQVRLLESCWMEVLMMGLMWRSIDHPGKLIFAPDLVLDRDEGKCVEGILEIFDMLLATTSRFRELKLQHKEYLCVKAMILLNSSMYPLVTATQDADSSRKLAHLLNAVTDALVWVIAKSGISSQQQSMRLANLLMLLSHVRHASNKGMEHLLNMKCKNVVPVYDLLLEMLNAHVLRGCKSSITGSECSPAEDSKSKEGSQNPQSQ
As a reminder, the IC50 is the concentration that gives 50% inhibition. Higher therefore signals weaker potency. The compound `C[C@@H]1CCN([C@@H](C)COc2ccc([C@@H]3Oc4ccc(O)c(F)c4S[C@@H]3c3cccc(O)c3)cc2)C1` gave a half-maximal inhibitory concentration (IC50) of 9.1 nM.
In the case of `C[C@@H]1CCN([C@@H](C)COc2ccc([C@@H]3Oc4ccc(O)cc4S[C@@H]3c3cccc(O)c3)cc2)C1`, it took 69 nM to reach half-maximal inhibition (IC50). Against the preceding compound, the IC50 is about 7.6-fold higher.
For the compound `C[C@@H]1CCN([C@@H](C)COc2ccc([C@@H]3Oc4ccc(O)c(F)c4S[C@@H]3c3ccc(O)cc3)cc2)C1`, half-maximal inhibition (IC50) required 5.3 nM.
